Here are results for 5 compounds from patent US11733232B2, “Method for producing disease modeling non-human animal, disease modeling non-human animal, and method for screening drug and method for determining risk of disease using the same” (National University Corporation Hokkaido University, priority 2017, dated 2023).

What all share (format): in vivo, C57BL/6 mice
The test system of experiment [1] is specific blood vessels in the boundary area of the third ventricle, thalamus, and dentate gyrus. Kind of experiment: Cell accumulation at the specific blood vessels of disease modeling mice (immunohistochemistry, flow cytometry). The conditions noted are these: 0.2 μL of 2 mg/ml microinjected at the specific blood vessels 4 days before T cell transfer; FIG. 22. The text has this:
Accumulation of MHC class II positive cells and CD4 positive T cells in the mice prepared in Example 1 (1) was investigated. The fifth lumbar vertebra and the brain were removed from the mice 10 days after transferring EAE-pathogenic CD4 positive T cells, embedded in SCEM (SECTION-LAB Co., Ltd.), and sliced to sections with a thickness of 10 μm using a microtome device, CM3050 (Leica Microsystems GmbH). Sections were collected using Cryofilm type IIIC (16UF) (SECTION-LAB Co., Ltd.), subjected to hematoxylin eosin staining, or to immunohistochemical staining with an anti-MHC class II antibody or anti-CD4 antibody, and analyzed by BZ-9000 microscope (KEYENCE Corporation) using HS ALL software in BZ-II analyzer (KEYENCE Corporation).
Furthermore, brains were removed from the mice 9 days after transferring EAE-pathogenic CD4 positive T cells, dissected into each parts of the cerebellum and brain stem, cortex, and hippocampus and interbrain, and enzymatically digested with Neural Tissue Dissection kit (Miltenyi Biotec Company) to prepare single cell suspension. […] Then, the cells were analyzed using CyAn flow cytometer (Beckman Coulter Corporation), and the obtained data were analyzed using Summit software (Beckman Coulter Corporation) or FlowJo software (Tree Star, Inc.). […]
For orientation: A flow cytometer gives signals particle by particle.

Experiment [2] relates to dopamine/noradrenergic neurons. The experiment can be described thus: Immunostaining of third ventricular regions of chemically sympathectomized mice (tyrosine hydroxylase, phosphorylated CREB). The conditions noted are these: 0.2 μL of 2 mg/ml microinjected at the specific blood vessels 4 days before T cell transfer, 10 days after transfer, FIG. 21. The protocol:
0.2 μL each of 6-hydroxydopamine (6-OHDA) hydrochloride (2 mg/ml), which is a neurotoxin denaturalizing dopamine/noradrenergic neurons, or a vehicle 0.02% ascorbic acid was microinjected at the specific blood vessels of C57BL/6 mice 4 days before transferring EAE-pathogenic CD4 positive T cells (2 days before stress load), in the same way as in the Example 3 (2). Subsequently, induction of sleep disorder and transfer of EAE-pathogenic CD4 positive T cells were performed in the same way as in the Example 1 (1).
Photographs of the immunostained third ventricular regions of chemically sympathectomized mice 10 days after transferring EAE-pathogenic CD4 positive T cells are shown in FIG. 21. The immunostaining was performed with an anti-tyrosine hydroxylase antibody or anti-phosphorylated CREB antibody. 6-OHDA reduced tyrosine hydroxylase-positive sympathetic neurons, and suppressed phosphorylation of CREB induced by noradrenergic receptor-mediated signal transduction.

Experiment [3] deals with mice in which sleep disorder was induced followed by transfer of EAE-pathogenic CD4 positive T cells. The experiment can be described thus: Pathological conditions (EAE clinical score, mortality, fecal occult blood) of disease modeling mice. The protocol: Loading PAWW stress and induction of sleep disorder thereby were performed as described previously (Miyazaki, K. et al., PloS one, 2013, 8, e55452). 6-8 weeks old C57BL/6 mice were individually maintained in plastic cages with running wheels for habituation. Then, through loading PAWW stress by replacing wood beddings in the cages with water having depth of 1.5 cm to make the mice exercise continuously on the wheel for 2 days, sleep disorder was induced in the mice.
Preparation and transfer of EAE-pathogenic CD4 positive T cells were performed as described previously (Arima, Y. et al., Cell., 2012, 148, 447-457; Arima, Y. et al., eLife, 2015, 4, e08733; Ogura, H. et al., Immunity, 2008, 29, 628-636). Briefly, C57BL/6 mice were injected subcutaneously with a MOG (35-55) peptide (Sigma-Aldrich Co. LLC.) together with complete Freund's adjuvant (Sigma-Aldrich Co. LLC.) at the base of the tail, then 0, 2, and 7 days after MOG peptide injection, the mice were further injected intravenously with pertussis toxin (Sigma-Aldrich Co. LLC.). 9 days after MOG peptide injection, lymphocytes were collected from the spleens of the mice, sorted with anti-CD4 microbeads (Miltenyi Biotec, Inc.) to obtain a cell population rich in CD4 positive T cells. The resulting cell population (4×10^6 cells) was co-cultured with MOG peptide-pulsed irradiated spleen cells (1×10^7 cells) for 2 days in the presence of rIL-23 (10 ng/mL; R & D Systems, Inc.). Cells were collected from the culture medium, enriched with the anti-CD4 microbeads, and EAE-pathogenic CD4 positive T cells were prepared.
2 days after starting stress load described in (i) above, the EAE-pathogenic CD4 positive T cells (1.5×10^7 cells) prepared in (ii) above were transferred to the mice by intravenous injection to produce disease modeling mice. Also, mice into which EAE-pathogenic CD4 positive T cells were transferred without stress load, mice into which EAE-pathogenic CD4 positive T cells were not transferred after stress load, mice without stress load and without EAE-pathogenic CD4 positive T cells transfer, were prepared.
Pathological conditions of EAE in the mice prepared in Example 1 were evaluated with clinical score. Clinical score was determined as described previously (Arima, Y. et al., Cell, 2012, 148, 447-457; Arima, Y. et al., eLife, 2015, 4, e08733; Ogura, H. et al., Immunity, 2008, 29, 628-636). Clinical scores represent the severity of encephalomyelitis symptoms, and the scores increase with increasing the severity. A score of 0 is equivalent to normal state without abnormal findings, and a score of 5 is equivalent to death.
(§1) Pathological conditions of gastroenteritis in the mice prepared in Example 1 (1) were evaluated on 10 days after the transfer of EAE-pathogenic CD4 positive T cells. Stools collected from each mouse were suspended in saline (20 mL/g stool), the supernatants obtained by centrifugation (8000 rpm, 5 minutes) were diluted to 10 times with saline, and fecal occult blood test was performed with Hemastix (Registered) (Siemens Healthcare Pty, Ltd.). Bloody stool scores were calculated according to the scoring method described on the package of Hemastix.

Experiment [4] has as its system C57BL/6 mouse with induction of sleep disorder. Kind of experiment: Microinjection at the specific blood vessels of mice with induced sleep disorder: mortality and bloody stool scores. To be noted: 1 μg microinjected together with IL-6 and IL-17A at the specific blood vessels, 2 days after. The protocol: as §1
Then, whether local inflammation in the brain causes a disease was investigated by directly injecting an inflammatory cytokine at the specific blood vessels. The head of a C57BL/6 mouse with induction of sleep disorder or a control mouse was fixed to a stereotactic device under anesthesia, fur above the skull was shaved, and the skin was cleaned with 70% ethanol. […]
(§2) Furthermore, at the specific blood vessels of mice in which sleep disorder was induced, IL-6 and IL-17A, with or without a selective antagonist for P2X receptor which is an ATP receptor, A438079 (1 μg), were microinjected, in the same way as in the Example 3 (2). Phosphorylated cfos in the third ventricular region, bloody stool scores, and mortality were evaluated 2 days after the microinjection, and the results are shown in FIG. 34 and FIG. 35. […]

Experiment [5] has as its system PVN and DMH neurons. The experiment can be described thus: Anti-phosphorylated cfos immunostaining of the hypothalamus (PVN and DMH) after microinjection at the specific blood vessels. To be noted: 2 days after.
From the text: Then, whether local inflammation in the brain causes a disease was investigated by directly injecting an inflammatory cytokine at the specific blood vessels. The head of a C57BL/6 mouse with induction of sleep disorder or a control mouse was fixed to a stereotactic device under anesthesia, fur above the skull was shaved, and the skin was cleaned with 70% ethanol. A 30-gauge needle was lowered toward the specific blood vessels (coordinates: AP −1.06 mm; ML 1 mm; DV 2.25 mm), and EAE-pathogenic CD4 positive T cells (1×10^6 cells)+bone marrow derived dendritic cells pulsed with MOG (5×10^5 cells), IFN-γ (50 ng; PeproTech, Inc.)+IL-17A (50 ng; R&D Systems, Inc.), or IL-6 (50 ng; Toray Industries, Inc.)+IL-17A (50 ng) in 0.2 μL each were microinjected over 90 seconds as described previously (Kim et al. (2011), Mol. Brain, 19, 4-6). […]
as §2

Molecules are shown by their SMILES.

On to `Cl.NCCc1cc(O)c(O)cc1O` [6-OHDA, 6-hydroxydopamine hydrochloride], for which, in experiment [1], the “accumulation of CD4 positive T cells at the specific blood vessels” value is reported as “suppressed” and the “accumulation of CD11b positive MHC class II-highly expressing cells at the specific blood vessels” value was “suppressed”. In addition, in experiment [2], the “phosphorylation of CREB” value is reported as “suppressed”. Further, the “tyrosine hydroxylase-positive sympathetic neurons” value in experiment [2] (vehicle 0.02% ascorbic acid) is on record as “reduced”. Besides, the mortality result in experiment [3] (0.2 μL of 2 mg/ml microinjected at the specific blood vessels 4 days before T cell transfer, 10 days after transfer, FIG. 23B) was “improved”. Besides, the clinical scores entry in experiment [3] (0.2 μL of 2 mg/ml microinjected at the specific blood vessels 4 days before T cell transfer, FIG. 23A) is listed as “improved”.
As to `Clc1cccc(-c2nnnn2Cc2cccnc2)c1Cl` [A438079], the mortality entry in experiment [4] (FIG. 35A) is on record as “improved”. Further, in experiment [4] (FIG. 35B), the “gastroenteritis (bloody stool scores)” value is on record as “improved”. The “neural activation in the PVN and DMH (phosphorylated cfos)” value in experiment [5] (1 μg microinjected together with IL-6 and IL-17A at the specific blood vessels of mice with sleep disorder, FIG. 34) is recorded as “suppressed”.
Turning to `Nc1ncnc2c1ncn2[C@@H]1O[C@H](COP(=O)(O)OP(=O)(O)OP(=O)(O)O)[C@@H](O)[C@H]1O` [ATP], the “phosphorylated cfos, that is, neural activation, in the PVN and DMH” value in experiment [5] (microinjected at the specific blood vessels of mice with sleep disorder (IFN-γ+IL-17A 50 ng each; ATP 2 μg), FIG. 30) is “activated”.
`NCc1cc(=O)[nH]o1` [Muscimol, muscimol]: the mortality result in experiment [3] (0.25 mg/mL microinjected into the DMH 5 days after T cell transfer, 10 days after transfer, FIG. 29B) is on record as “remarkably improved”. In addition, the bloody stool scores entry in experiment [3] (0.25 mg/mL microinjected into the DMH 5 days after T cell transfer, 10 days after transfer, FIG. 29C) was “remarkably improved”. The clinical scores result in experiment [3] (0.25 mg/mL microinjected into the DMH 5 days after T cell transfer, vehicle saline, FIG. 29A) was “remarkably improved”.
Regarding `Cc1c(OCC(F)(F)F)ccnc1C[S+]([O-])c1nc2ccccc2[nH]1` (stereo not shown) [lansoprazole], the “mortality 10 days after the transfer” value in experiment [3] (30 mg/kg body weight orally daily after transfer, control CMC, FIG. 6B) is reported as “remarkably reduced”. For the same compound, in experiment [3] (30 mg/kg body weight orally daily after transfer, control CMC, FIG. 6C), the bloody stool scores entry was “remarkably reduced”. For the same compound, in experiment [3] (30 mg/kg body weight orally daily after transferring EAE-pathogenic CD4 positive T cells, control carboxymethyl cellulose, FIG. 6A), the clinical scores entry is “remarkably reduced”.
